From ChEMBL document CHEMBL1201862, “PubChem BioAssay data set” (2004)
Calls of active or inactive are those of the source.

Experiments:
[1] = molecular target: Intestinal-type alkaline phosphatase (Homo sapiens, UniProt P09923); assay: inhibition of human intestinal alkaline phosphatase – biochemical, dose response (AID 488876); format: functional
[2] = molecular target: T1, Alkaline phosphatase, tissue-nonspecific isozyme (Homo sapiens, UniProt P05186); assay: TNAP enzyme inhibition by screening hits, dose response, selectivity assay for mouse IAP inhibitor project, biochemical, human TNAP, uHTS hits (AID 488906); format: functional
T1 sequence (P05186 whole entry): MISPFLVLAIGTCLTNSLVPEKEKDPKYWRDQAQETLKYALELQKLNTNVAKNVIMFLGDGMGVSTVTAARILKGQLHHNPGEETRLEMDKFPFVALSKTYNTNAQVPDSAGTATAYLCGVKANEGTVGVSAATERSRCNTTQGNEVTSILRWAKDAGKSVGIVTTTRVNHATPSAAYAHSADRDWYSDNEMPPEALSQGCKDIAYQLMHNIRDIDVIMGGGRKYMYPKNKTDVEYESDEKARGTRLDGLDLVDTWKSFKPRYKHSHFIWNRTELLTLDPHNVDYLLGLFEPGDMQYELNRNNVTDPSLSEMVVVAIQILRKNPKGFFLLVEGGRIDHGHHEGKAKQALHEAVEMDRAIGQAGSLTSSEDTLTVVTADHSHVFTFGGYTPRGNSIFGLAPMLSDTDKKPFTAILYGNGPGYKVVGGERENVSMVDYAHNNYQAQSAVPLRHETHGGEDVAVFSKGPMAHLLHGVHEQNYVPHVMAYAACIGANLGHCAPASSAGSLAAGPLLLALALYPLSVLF

[3] = molecular target: Intestinal-type alkaline phosphatase (Mus musculus, UniProt P24822); assay: PubChem AID 488785; format: functional
H9c2 = assay: cells; format: functional, cell-based; conditions: Rattus norvegicus, H9c2, Myocardium;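 further: confirmatory concentration-response retest of ultra-high-throughput screening hits for modulation of myocardial damage; cell death induced by hydrogen peroxide oxidative stress; compound pretreatment for 60 min then peroxide exposure for 2 h; potency is for protecting the cells against peroxide damage rather than for killing them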
[4] = Luminescence Cell-Based Dose Retest to Confirm Inhibitors of Cancer Stem Cells. [Related pubchem assays (depositor defined):AID2717, AID2721]; format: functional; conditions: Homo sapiens
Beta-galactosidase = Beta-galactosidase (Escherichia coli, UniProt Q8VNN2); assay: PubChem AID 485352; format: functional
INS1 = assay: INS-1E survival protection against cytokine death – cell-based, luminescence, retest, dose response (AID 449756); format: functional; conditions: Rattus norvegicus;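 further: cell death triggered by IL-1 beta plus TNF-alpha plus IFN-gamma mixture; protective hits raise ATP signal compared with cytokine alone wells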
[5] = molecular target: T2, Type-1 angiotensin II receptor (Homo sapiens, UniProt P30556); assay: antagonism of angiotensin II type 1 receptor – cell-based, uHTS hits, selectivity assay for APJ receptor antagonist project, dose response (AID 463214); format: functional;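 further: antagonist potency against angiotensin II stimulated AT1 response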
T2 sequence (P30556 whole entry): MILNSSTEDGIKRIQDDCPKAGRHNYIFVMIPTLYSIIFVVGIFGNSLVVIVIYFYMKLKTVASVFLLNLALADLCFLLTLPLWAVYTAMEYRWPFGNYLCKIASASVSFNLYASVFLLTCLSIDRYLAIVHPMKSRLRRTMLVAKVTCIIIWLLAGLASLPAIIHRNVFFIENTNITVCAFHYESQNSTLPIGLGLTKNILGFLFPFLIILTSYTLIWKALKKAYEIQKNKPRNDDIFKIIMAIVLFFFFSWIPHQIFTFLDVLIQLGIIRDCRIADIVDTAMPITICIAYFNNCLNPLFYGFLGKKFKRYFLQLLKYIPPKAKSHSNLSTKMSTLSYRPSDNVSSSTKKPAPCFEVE

[6] = molecular target: Glucose-6-phosphate 1-dehydrogenase (Homo sapiens, UniProt P11413); assay: inhibition of Homo sapiens G6PD, dose series – biochemical, fluorescence, selectivity assay for P. falciparum G6PD inhibitor project, dose response (AID 504792); format: functional
A-375 [7] = assay: MITF: Counter assay: A375 proliferation Measured in Cell-Based System Using Plate Reader - 2084-03_Inhibitor_Dose_DryPowder_Activity. [Related pubchem assays (depositor defined):AID488944]; format: functional; conditions: Homo sapiens
A-375 [8] = assay: proliferation inhibition in MITF-low A375 cells – cell-based, cherry-pick samples, set 2, counter-screen for MITF modulator project, dose response (AID 540335); format: functional; conditions: Homo sapiens

Intestinal-type alkaline phosphatase (Mus musculus, UniProt P24822), sequence (P24822 whole entry): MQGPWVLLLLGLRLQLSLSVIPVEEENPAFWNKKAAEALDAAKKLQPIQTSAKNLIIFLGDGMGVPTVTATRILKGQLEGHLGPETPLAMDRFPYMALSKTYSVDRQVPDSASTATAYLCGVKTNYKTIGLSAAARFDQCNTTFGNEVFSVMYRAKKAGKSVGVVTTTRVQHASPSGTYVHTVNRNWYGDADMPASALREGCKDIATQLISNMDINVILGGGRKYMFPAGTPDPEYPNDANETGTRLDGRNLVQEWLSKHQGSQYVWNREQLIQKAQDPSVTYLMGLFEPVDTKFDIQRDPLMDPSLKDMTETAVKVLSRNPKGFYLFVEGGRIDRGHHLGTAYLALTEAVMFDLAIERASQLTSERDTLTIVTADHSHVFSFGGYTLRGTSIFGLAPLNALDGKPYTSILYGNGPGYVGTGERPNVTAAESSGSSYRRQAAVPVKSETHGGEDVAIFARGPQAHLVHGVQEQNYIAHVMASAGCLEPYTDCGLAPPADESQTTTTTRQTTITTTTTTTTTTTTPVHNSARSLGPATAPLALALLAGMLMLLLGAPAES
Beta-galactosidase, sequence (Q8VNN2 whole entry): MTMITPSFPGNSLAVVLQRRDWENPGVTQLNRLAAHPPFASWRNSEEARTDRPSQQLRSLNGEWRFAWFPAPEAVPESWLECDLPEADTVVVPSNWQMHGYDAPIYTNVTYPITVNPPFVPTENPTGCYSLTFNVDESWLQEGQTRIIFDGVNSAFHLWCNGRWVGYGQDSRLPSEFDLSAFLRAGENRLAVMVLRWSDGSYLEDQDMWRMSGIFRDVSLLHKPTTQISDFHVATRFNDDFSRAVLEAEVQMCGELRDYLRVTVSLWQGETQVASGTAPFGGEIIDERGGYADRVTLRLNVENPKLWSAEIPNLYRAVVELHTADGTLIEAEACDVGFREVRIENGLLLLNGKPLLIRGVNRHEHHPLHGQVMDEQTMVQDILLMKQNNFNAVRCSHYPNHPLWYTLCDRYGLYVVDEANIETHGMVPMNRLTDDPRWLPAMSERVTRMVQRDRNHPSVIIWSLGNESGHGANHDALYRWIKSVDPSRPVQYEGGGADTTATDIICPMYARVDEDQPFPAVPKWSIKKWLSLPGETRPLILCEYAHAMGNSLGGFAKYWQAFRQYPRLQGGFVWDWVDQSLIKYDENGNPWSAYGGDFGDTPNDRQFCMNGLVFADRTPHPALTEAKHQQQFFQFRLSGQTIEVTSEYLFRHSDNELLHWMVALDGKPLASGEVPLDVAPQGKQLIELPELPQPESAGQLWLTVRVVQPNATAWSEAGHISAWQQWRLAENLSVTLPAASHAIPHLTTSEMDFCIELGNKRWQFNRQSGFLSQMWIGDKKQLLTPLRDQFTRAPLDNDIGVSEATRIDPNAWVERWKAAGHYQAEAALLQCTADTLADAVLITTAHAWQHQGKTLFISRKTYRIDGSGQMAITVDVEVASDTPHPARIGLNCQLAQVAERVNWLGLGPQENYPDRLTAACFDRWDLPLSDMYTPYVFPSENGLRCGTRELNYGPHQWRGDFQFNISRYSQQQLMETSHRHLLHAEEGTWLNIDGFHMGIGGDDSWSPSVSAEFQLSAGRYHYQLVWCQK
Glucose-6-phosphate 1-dehydrogenase, sequence (P11413 whole entry): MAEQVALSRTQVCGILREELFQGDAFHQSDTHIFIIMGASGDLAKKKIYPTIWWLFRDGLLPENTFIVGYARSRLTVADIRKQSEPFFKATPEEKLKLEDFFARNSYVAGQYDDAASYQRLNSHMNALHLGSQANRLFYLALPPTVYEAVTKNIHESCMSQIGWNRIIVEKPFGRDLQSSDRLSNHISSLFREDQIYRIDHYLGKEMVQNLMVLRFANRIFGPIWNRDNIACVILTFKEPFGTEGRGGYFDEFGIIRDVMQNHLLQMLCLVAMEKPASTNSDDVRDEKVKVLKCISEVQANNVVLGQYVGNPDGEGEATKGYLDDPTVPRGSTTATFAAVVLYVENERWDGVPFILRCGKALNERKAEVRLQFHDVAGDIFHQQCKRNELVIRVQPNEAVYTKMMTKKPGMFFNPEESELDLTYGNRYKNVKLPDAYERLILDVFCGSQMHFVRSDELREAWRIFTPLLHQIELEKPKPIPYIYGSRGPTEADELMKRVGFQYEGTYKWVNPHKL
Intestinal-type alkaline phosphatase (Homo sapiens, UniProt P09923), sequence (P09923 whole entry): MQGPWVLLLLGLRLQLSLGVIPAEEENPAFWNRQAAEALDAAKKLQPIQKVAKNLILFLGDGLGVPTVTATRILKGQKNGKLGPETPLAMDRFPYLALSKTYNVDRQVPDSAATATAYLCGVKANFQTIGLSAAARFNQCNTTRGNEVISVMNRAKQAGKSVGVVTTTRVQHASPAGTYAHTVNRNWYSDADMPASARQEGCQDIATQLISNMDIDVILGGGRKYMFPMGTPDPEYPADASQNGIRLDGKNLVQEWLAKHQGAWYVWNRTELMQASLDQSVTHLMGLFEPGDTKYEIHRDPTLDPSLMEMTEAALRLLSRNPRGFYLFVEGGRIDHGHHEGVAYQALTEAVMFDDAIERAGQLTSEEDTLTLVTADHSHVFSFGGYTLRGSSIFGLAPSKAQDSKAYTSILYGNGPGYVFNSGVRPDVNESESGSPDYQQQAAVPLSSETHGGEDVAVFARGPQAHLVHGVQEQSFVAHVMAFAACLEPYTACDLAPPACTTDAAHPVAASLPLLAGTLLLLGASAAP

For `CC(/C=C/C1(O)C(C)CC(=O)CC1(C)C)OC1OC(CO)C(O)C(O)C1O` (stereo not drawn), the IC50 [1] was > 100 µM (inactive), the IC50 [2] was > 100 µM (inactive) and the IC50 [3] was 9.13 µM (active).

With `CC1(C)Cc2c(c(N3CCOCC3)nc3sc4c(NN)ncnc4c23)CS1` the IC50 (H9c2) was 10 µM (active), the AC50 [4] was 7.43 µM (active) and the EC50 (Beta-galactosidase) was > 40 µM (inactive). For the same compound, the AC50 (INS1) was 2.08 µM (active) and the IC50 [5] was 16.8 µM (active).

With `O=C(Nc1ccc(N2CCOCC2)c(Cl)c1)c1ccc(Cl)cc1` the IC50 [6] was > 80 µM (inactive).

For `Cc1ccc2oc(=O)n(CCCOc3ccccc3)c2c1`, the AC50 (A-375 [7]) was > 35 µM (active) and the AC50 (A-375 [8]) was > 35 µM (active).

In the case of `Cc1cccc(OCC(=O)Nc2cccc(O)c2)c1`, the AC50 (A-375 [7]) is reported as > 35 µM (active) and the AC50 (A-375 [8]) is reported as > 35 µM (active).
